Laboratory results: US9856259B2, “Heterocyclic compounds and uses thereof” (Plexxikon Inc., priority 2014, dated 2018)

Each molecule was assayed on cancer cell lines / MV-4-11 Myc reporter cell line (assay: Bromodomain cell assays of Example 8 (at least one of them)). Details: Homo sapiens, MV4-11; at least one of the bromodomain cell assays described in Example 8.
Format: cell-based
Method: In this study, we test compounds in different cancer cell lines. MV-4-11 and MOLM-13 are AML cell lines harboring a MLL-AF4 and MLL-AF9 translocation, respectively. MM.1S is a multiple myeloma cell line. SK—N-AS, IMR-32 and SK-N-BE(2) are neuroblastoma cell lines. IMR-32 and SK-N-BE(2) cell lines harbor MYCN amplifications.
MV-4-11, MM.1S, IMR-32, SK-N-AS and SK-N-BE(2) were obtained from ATCC (IL, USA) and MOLM-13 were purchased from DSMZ (Braunschweig, German). Cells are cultured as recommended by their sources. For growth inhibition studies 3000 cells are seeded in wells of a 96-well plate in 75 μL of culture media. After several hours, growth media containing compounds of formula (I) are added to the wells. Compound at a maximal concentration of 5 mM was serially diluted 1:3 for a total of 8 point titration with DMSO as a control. A 1 μL aliquot of each dilution point is added to 249 μL growth media and 75 μL is added to each well containing cells, providing 10 μM compound at the maximum concentration point. The final concentration of DMSO in all wells is 0.2%. Cells are incubated for 72 hours, and 25 μL of CellTiter Glo Reagent (Promega Ga., USA) is added to each well. Plates are shaken for approximately 10 minutes and chemiluminescent signal is read on Tecan microplate reader. The measured luminescence correlates directly with cell number.
All data is normalized to the mean of eight DMSO high control wells on each plate. A four parameter curve fit of the following formula was then applied: Y=a+(b−a)/(1+(x/c)^d) Where ‘a’ is the minimum, ‘b’ is the maximum, ‘c’ is the pIC50 and ‘d’ is the Hill slope. […] Myc Reporter Assay
In MV-4-11 cells, BRD2, BRD3 and BRD4 bind to the promoter region of MYC and regulate its transcription (Dawson M A et al. 2011). The literature bromodomain inhibitor iBET 151 could disrupt BRD4 recruitment to the MYC promoter and subsequently downregulate c-myc transcription (Dawson M A et al. 2011). Myc protein is a transcription factor that heterodimerizes with an obligatory partner Max and regulates the transcription of genes important for cell proliferation, differentiation, and apoptosis. This Myc reporter assay is used to monitor the inhibitory effect of compound of formula (I) on Myc dependent gene expression. Effective compounds could have potential therapeutic effects in Myc-driven tumors.
The MV-4-11 Myc reporter cell line is established by infecting MV-4-11 with VSV-g pseudotyped lentivirus expressing the firefly luciferase gene under the control of a minimal (m) CMV promoter and tandem repeats of the E-box transcriptional response element (TRE) (Qiagen IL, USA) and selecting cells in 2.5 μg/ml Puromycin.
The MV-4-11 Myc reporter cell line is maintained in Iscove's Modified Dulbecco's Medium containing 10% FBS, 1% PenStep and 2.5 μg/ml Puromycin. Cells are incubated at 37° C. in a humidified atmosphere with 5% CO2. 25,000 cells are seeded in 96-well plate in 50 μL of culture media. After several hours, growth media containing 2× compounds are added to the wells. Compound at a maximal concentration of 5 mM is serially diluted 1:3 for a total of 8 point titration. A 1 μl aliquot of each dilution point is added to 249 μl growth media and 50 μl is added to each well containing cells, providing 10 μM compound at the maximum concentration point. DMSO treated cells serve as a high control and 10 μM JQ1 treated cells serve as a low control. Cells are incubated for a further 24 hours and 25 μL of CellTiter-Fluo Reagent (Promega Ga., USA) is added to each well. Plates are shaken for approximately 2 minutes and incubated at 37° C. for 0.5 hour. Fluorescence signal is read in a Tecan Plate reader (λex=400 nm, λcm=505 nm). 25 μL of One-Glo Reagent (Promega Ga., USA) is then added to the plates. Chemiluminescent signal is read on Tecan plate reader. Values from the wells with no cells are subtracted from all samples for background correction. […]
For `Cc1noc(C)c1-c1ccc2[nH]nc(Cc3ccccc3)c2c1` [Compound P-2035, 4-(3-benzyl-1H-indazol-5-yl)-3,5-dimethyl-isoxazole], the IC50 was < 10 µM.
For `CCOC(=O)c1ccc(-n2nc(Cc3ccccc3)c3cc(-c4c(C)noc4C)ccc32)c(F)c1` [Compound P-2036, ethyl 4-[3-benzyl-5-(3,5-dimethylisoxazol-4-yl)indazol-1-yl]-3-fluoro-benzoate], the IC50 was < 10 µM.
With `Cc1noc(C)c1-c1ccc2c(c1)c(Cc1ccccc1)nn2-c1ccc(C(=O)O)cc1F` [Compound P-2037, 4-[3-benzyl-5-(3,5-dimethylisoxazol-4-yl)indazol-1-yl]-3-fluoro-benzoic acid] the IC50 was < 10 µM.
For `Cc1noc(C)c1-c1cnc2c(I)nn([C@@H](C)c3ccccn3)c2c1` [Compound P-2091, 4-[3-iodo-1-[(1S)-1-(2-pyridyl)ethyl]pyrazolo[4,3-b]pyridin-6-yl]-3,5-dimethyl-isoxazole], the IC50 was < 10 µM.
For `Cc1noc(C)c1-c1cnc2c(-c3ccc(C(=O)O)cc3)nn([C@@H](C)c3ccccn3)c2c1` [Compound P-2093, 4-[6-(3,5-dimethylisoxazol-4-yl)-1-[(1S)-1-(2-pyridyl)ethyl]pyrazolo[4,3-b]pyridin-3-yl]benzoic acid], the IC50 was < 10 µM.
In the case of `Cc1noc(C)c1-c1cnc2c(-c3ccc(CC(=O)O)cc3)nn([C@@H](C)c3ccccn3)c2c1` [Compound P-2094, 2-[4-[6-(3,5-dimethylisoxazol-4-yl)-1-[(1S)-1-(2-pyridyl)ethyl]pyrazolo[4,3-b]pyridin-3-yl]phenyl]acetic acid], the IC50 is reported as < 10 µM.
`Cc1noc(C)c1-c1cnc2c(I)nn(C(c3ccccc3)c3ccccn3)c2c1` (centres unmarked) [Compound P-2095, 4-[3-iodo-1-[phenyl(2-pyridyl)methyl]pyrazolo[4,3-b]pyridin-6-yl]-3,5-dimethyl-isoxazole] was tested, and the IC50 was < 10 µM.
`Cc1noc(C)c1-c1cnc2c(-c3ccc(C(=O)O)cc3)nn(C(c3ccccc3)c3ccccn3)c2c1` (centres unmarked) [Compound P-2096, 4-[6-(3,5-dimethylisoxazol-4-yl)-1-[phenyl(2-pyridyl)methyl]pyrazolo[4,3-b]pyridin-3-yl]benzoic acid] was tested, and the IC50 was < 10 µM.
In the case of `Cc1noc(C)c1-c1cnc2c(-c3ccc(CC(=O)O)cc3)nn(C(c3ccccc3)c3ccccn3)c2c1` (centres unmarked) [Compound P-2097, 2-[4-[6-(3,5-dimethylisoxazol-4-yl)-1-[phenyl(2-pyridyl)methyl]pyrazolo[4,3-b]pyridin-3-yl]phenyl]acetic acid], the IC50 is reported as < 10 µM.
`Cc1noc(C)c1-c1cnc2c(-c3cnn(CC(F)(F)F)c3)nn([C@@H](C)c3ccccn3)c2c1` [Compound P-2098, 3,5-dimethyl-4-[1-[(1S)-1-(2-pyridyl)ethyl]-3-[1-(2,2,2-trifluoroethyl)pyrazol-4-yl]pyrazolo[4,3-b]pyridin-6-yl]isoxazole] was tested, and the IC50 was < 10 µM.
For `Cc1noc(C)c1-c1cnc2c(-c3cnn(C)c3)nn([C@@H](C)c3ccccn3)c2c1` [Compound P-2099, 3,5-dimethyl-4-[3-(1-methylpyrazol-4-yl)-1-[(1S)-1-(2-pyridyl)ethyl]pyrazolo[4,3-b]pyridin-6-yl]isoxazole], the IC50 was < 10 µM.
`Cc1noc(C)c1-c1cnc2[nH]nc(Cc3ccccc3)c2c1` [Compound P-2100, 4-(3-benzyl-1H-pyrazolo[3,4-b]pyridin-5-yl)-3,5-dimethyl-isoxazole] was tested, and the IC50 was < 10 µM.
With `CCOC(=O)c1ccc(-n2nc(Cc3ccccc3)c3cc(-c4c(C)noc4C)cnc32)c(F)c1` [Compound P-2101, ethyl 4-[3-benzyl-5-(3,5-dimethylisoxazol-4-yl)pyrazolo[3,4-b]pyridin-1-yl]-3-fluoro-benzoate] the IC50 was < 10 µM.
With `Cc1noc(C)c1-c1cnc2c(c1)c(Cc1ccccc1)nn2-c1ccc(C(=O)O)cc1F` [Compound P-2102, 4-[3-benzyl-5-(3,5-dimethylisoxazol-4-yl)pyrazolo[3,4-b]pyridin-1-yl]-3-fluoro-benzoic acid] the IC50 was < 10 µM.
